Target: T1, human α2A (Homo sapiens, UniProt P08913)
T1 construct: expressed in transfected cells; host or cells: CHO cells (CHO-C10)
T1 sequence (P08913 1-465): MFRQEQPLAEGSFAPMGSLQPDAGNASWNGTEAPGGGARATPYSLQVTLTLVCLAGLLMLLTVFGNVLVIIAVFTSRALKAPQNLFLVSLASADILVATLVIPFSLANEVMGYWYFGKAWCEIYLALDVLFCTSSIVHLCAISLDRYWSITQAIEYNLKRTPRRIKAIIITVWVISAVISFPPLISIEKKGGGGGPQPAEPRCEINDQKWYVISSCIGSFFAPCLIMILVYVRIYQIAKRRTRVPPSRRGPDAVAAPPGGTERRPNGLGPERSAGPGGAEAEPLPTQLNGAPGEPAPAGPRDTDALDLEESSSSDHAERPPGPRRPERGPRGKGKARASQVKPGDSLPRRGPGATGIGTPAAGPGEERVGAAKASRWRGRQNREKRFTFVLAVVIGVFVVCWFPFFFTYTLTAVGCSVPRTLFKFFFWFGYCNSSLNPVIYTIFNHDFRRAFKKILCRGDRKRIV
Assay: Receptor binding, [3H]rauwolscine, CHO-C10 cells expressing human α2A
Conditions: CHO-C10, 22° C., 30 min
Method: Cell preparation: Chinese hamster ovary (CHO) cells expressing the human α2A and human α2C (CHO-C10 and CHO-C4 respectively) receptors and CHO cells (CHO-RNG) expressing the rat α2B, adrenoceptor were grown to near confluence in Dulbecco's modified Eagle's medium supplemented with 10% fetal bovine serum using standard cell culture methods. Cells were harvested by scraping and placed into cold buffer of the following composition: 50 mM Tris-HCl, 5 mM EDTA, pH 7.4). […] The pellet fraction was washed (resuspended in Tris-HCl, pH 8 buffer and centrifuged for 15-20 minutes at 49,000× g) 2 times and stored at -100° until binding assay.
Binding Studies: The radioligands [^3 H]rauwolscine (specific activity 80 Ci/mmol) and [^3 H]prazosin (specific activity 76 Ci/mmol) were obtained from New England Nuclear, Boston, Mass. Frozen membrane pellet was resuspended in 25 mM glycine/glycine, pH 7.5 and incubated with radioligand under the following conditions: CHO-C10, CHO-RNG, CHO-C4-[^3 H]rauwolscine, 22° C., 30 minutes; RKC-[^3 H]rauwolscine, 0° C., 120 minutes; and, HCC-[^3 H]prazosin, 22° C., 30 minutes in a final volume of 500 ul. At the end of the incubation period, the samples were filtered through glass filters (Whatman GF/B) in a 96 well cell harvester and rapidly washed four times with 4 mL of iced-cold 50 mM Tris-HCl buffer. The filters were then oven dried and transferred to scintillation vials containing 10 mL of Beckman's Ready Protein® scintillation cocktail for counting. […] Protein concentrations were determined with a protein assay kit from Bio Rad. Binding isotherms, equilibrium dissociation and affinity constants were analyzed and determined by the non-linear least squares curve fitting programs EBDA (BioSoft) or AccuFit Competition/Saturation by Beckman.
Cell Preparation: Chinese hamster ovary (CHO) cells expressing the human α2A (CHO-C10) and the rate α2B (CHO-RNG) […] were grown to near confluence in Dulbecco's modified Eagle's medium supplemented with 10% fetal bovine serum using standard cell culture methods. Cells were harvested by scraping and placed into cold buffer of the following composition: 50 mM Tris-HCl, 5 mM EDTA, pH 7.4). […] The pellet fraction was washed (resuspended in Tris-HCl, pH 8 buffer and centrifuged for 15-20 minutes at 49,000× g) 2 times and stored at […] until binding assay.
The radioligands [^3 H] rauwolscine (specific activity 80 Ci/mmol) and [^3 H] prazosin (specific activity 76 Ci/mmol) were obtained from New England Nuclear, Boston, Mass. Frozen membrane pellet was resuspended in 25 mM glycine/glycine, pH 7.4 and incubated with radioligand under the following conditions: CHO-C10, CHO-RNG, CHO-C4-[^3 H]rauwolscine, 22° C., 30 min.; and, HCC-[^3 H]prazowsin, 22° C., 30 minutes in a final volume of 500 ul. At the end of the incubation period, the samples were filtered through glass fiber filters (Whatman GF/B) in a 96 well cell harvester and rapidly washed four times which 4 mL of iced-cold 50 mM Tris-CHI buffer. The filters were then oven dried and transferred to scintillation vials containing 5 mL of Beckman's Ready Protein® scintillation cocktail for counting. […] Protein concentrations were determined with a protein assay kit from Bio lad. Binding isotherms, equilibrium dissociation and affinity constants were analyzed and determined by the non-linear least squares curve fitting programs AccuFit Competition/Saturation by Beckman.
Representative compounds of the present invention were tested according to the procedures given above. […] The receptor binding studies and K1 are measures of the affinity of a compound for a particular receptor.

Structure (SMILES)	Ki [nM]
CC1CNc2c(ccc(NC3=NCCN3)c2Br)N1 (centres unmarked) [Example 10]	24
Cc1c(NC2=NCCN2)ccc2c1NCCN2 [Example 8]	9.6
Nc1cc(Cl)c(NC2=NCCN2)c(Cl)c1 [Example 3]	2.9
Cc1c(NC2=NCCN2)ccc2c1OCCO2 [Example 13]	0.25
Cc1c(NC2=NCCN2)ccc2c1NC(=O)CO2 [Example 15]	17
Cc1ccccc1NC1=NCCN1 [Example 1]	8.9
COc1ccc(NC2=NCCN2)c(C)c1OC [Example 12]	5.2
COc1c(C(C)(C)C)cc(C)c(Nc2ncc[nH]2)c1C [Example 22]	4.9
O=C1COc2ccc(NC3=NCCN3)cc2N1 [Example 14]	52

Now from value to molecule:

Ki [nM]	Structure (SMILES)
35	c1cc2c(cc1NC1=NCCN1)NCCN2 [Example 7]
6.1	Brc1c(NC2=NCCN2)ccc2c1NCCN2 [Example 9]
30	Cc1c(O)cccc1Nc1ncc[nH]1 [Example 20]
1.2	Cc1c(NC2=NCCN2)ccc2c1NCCO2 [Example 16]
52	Cc1cccc(Nc2ncc[nH]2)c1C [Example 18]

Reference: patent US6087361A, “Aryl-imidazolines and aryl-imidazoles useful as α-2 adrenergic agonists without cardiovascular side effects” (Allergan Sales, Inc., priority 1997, dated 2000)
